Test results published in PubChem BioAssay AID2060325 (Molecular Pharmacology Branch, DTP, NCI, 2025).

Tested on: SK-OV-3 multi-cell spheroids, viability
Test: Anticancer human tumor SK-OV-3 cell line growth inhibition [IpAb];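 on viability, T/C: viability read after seven days of drug exposure; percent of DMSO vehicle control luminescence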
Conditions: for IC50: curve of first compound; for viability, T/C: stronger effect = lower value
In short: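 Multi-cell spheroids of 60% tumour cells, 25% HUVEC and 15% MSC in ultra-low-attachment U-bottom wells, treated with agents combined with ipatasertib or abemaciclib. Half-log ranges top out near clinical Cmax, or 10 microM when Cmax is unknown.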

[1] = second compound 0.01 µM, first compound 0.0316 µM
[2] = second compound 0.01 µM, first compound 0.1 µM
[3] = second compound 0.0316 µM, first compound 0.0316 µM
[4] = second compound 0.0316 µM, first compound 0.1 µM
[5] = second compound 0.1 µM, first compound 0.0316 µM
[6] = second compound 0.1 µM, first compound 0.1 µM
[7] = second compound 0.316 µM, first compound 0.0316 µM
[8] = second compound 0.316 µM, first compound 0.1 µM
[9] = second compound 1 µM, first compound 0.0316 µM
[10] = second compound 1 µM, first compound 0.1 µM

Which IC50 (second compound 0.01 µM) does the source give for `Cn1ncc(Cl)c1-c1cc(C(=O)NC(CN)Cc2cccc(F)c2)sc1Cl` (stereo not given) + CCN1CCN(Cc2ccc(Nc3ncc(F)c(-c4cc(F)c5nc(C)n(C(C)C)c5c4)n3)nc2)CC1 here?
The IC50 was 66 nM.

And the IC50 (second compound 0.0316 µM)?
The IC50 was 34.7 nM.

What about the IC50 (second compound 0.1 µM) of the same molecule?
Its IC50 is less than 31.6 nM.

What about the IC50 (second compound 0.316 µM) of the same molecule?
Its IC50 is less than 31.6 nM.

And the IC50 (second compound 1 µM)?
The IC50 was less than 31.6 nM.

And the viability, T/C [1]?
Its viability, T/C is 66.5%.

And the viability, T/C [2]?
Its viability, T/C is 41%.

What about the viability, T/C (second compound 0.01 µM, first compound 0.316 µM) of the same molecule?
Its viability, T/C is 22.1%.

What about the viability, T/C (second compound 0.01 µM, first compound 1 µM) of the same molecule?
The viability, T/C was 14.1%.

What about the viability, T/C (second compound 0.01 µM, first compound 3.16 µM) of the same molecule?
Its viability, T/C is 6.99%.

And the viability, T/C (second compound 0.01 µM, first compound 10 µM)?
Its viability, T/C is 0.34%.

What about the viability, T/C [3] of the same molecule?
The viability, T/C was 52.8%.

What about the viability, T/C [4] of the same molecule?
Its viability, T/C is 30.6%.

And the viability, T/C (second compound 0.0316 µM, first compound 0.316 µM)?
The viability, T/C was 22.3%.

And the viability, T/C (second compound 0.0316 µM, first compound 1 µM)?
Its viability, T/C is 13.8%.

What about the viability, T/C (second compound 0.0316 µM, first compound 3.16 µM) of the same molecule?
The viability, T/C was 7.67%.

What about the viability, T/C (second compound 0.0316 µM, first compound 10 µM) of the same molecule?
Its viability, T/C is 0.51%.

What about the viability, T/C [5] of the same molecule?
The viability, T/C was 42.7%.

And the viability, T/C [6]?
The viability, T/C was 26.7%.

And the viability, T/C (second compound 0.1 µM, first compound 0.316 µM)?
Its viability, T/C is 18.1%.

And the viability, T/C (second compound 0.1 µM, first compound 1 µM)?
The viability, T/C was 12.9%.

And the viability, T/C (second compound 0.1 µM, first compound 3.16 µM)?
The viability, T/C was 7.38%.

What about the viability, T/C (second compound 0.1 µM, first compound 10 µM) of the same molecule?
Its viability, T/C is 0.3%.

And the viability, T/C [7]?
The viability, T/C was 43.3%.

What about the viability, T/C [8] of the same molecule?
The viability, T/C was 29.8%.

What about the viability, T/C (second compound 0.316 µM, first compound 0.316 µM) of the same molecule?
The viability, T/C was 20%.

What about the viability, T/C (second compound 0.316 µM, first compound 1 µM) of the same molecule?
The viability, T/C was 15.1%.

What about the viability, T/C (second compound 0.316 µM, first compound 3.16 µM) of the same molecule?
Its viability, T/C is 8.84%.

What about the viability, T/C (second compound 0.316 µM, first compound 10 µM) of the same molecule?
The viability, T/C was 0.17%.

And the viability, T/C [9]?
Its viability, T/C is 36.3%.

And the viability, T/C [10]?
Its viability, T/C is 34.7%.

What about the viability, T/C (second compound 1 µM, first compound 0.316 µM) of the same molecule?
The viability, T/C was 24.4%.

And the viability, T/C (second compound 1 µM, first compound 1 µM)?
The viability, T/C was 17.8%.

What about the viability, T/C (second compound 1 µM, first compound 3.16 µM) of the same molecule?
Its viability, T/C is 12.2%.

What about the viability, T/C (second compound 1 µM, first compound 10 µM) of the same molecule?
The viability, T/C was 0.39%.

How did the IC50 (second compound 0.01 µM) turn out when `Cn1ncnc1[C@H]1c2n[nH]c(=O)c3cc(F)cc(c23)N[C@@H]1c1ccc(F)cc1` + CCN1CCN(Cc2ccc(Nc3ncc(F)c(-c4cc(F)c5nc(C)n(C(C)C)c5c4)n3)nc2)CC1 was run?
The IC50 was greater than 100 nM.

And the IC50 (second compound 0.0316 µM)?
Its IC50 is greater than 100 nM.

And the IC50 (second compound 0.1 µM)?
Its IC50 is greater than 100 nM.

And the IC50 (second compound 0.316 µM)?
The IC50 was greater than 100 nM.

And the IC50 (second compound 1 µM)?
The IC50 was less than 0.316 nM.

What about the viability, T/C (second compound 0.01 µM, first compound 0.000316 µM) of the same molecule?
The viability, T/C was 99.8%.

What about the viability, T/C (second compound 0.01 µM, first compound 0.001 µM) of the same molecule?
The viability, T/C was 93.9%.

And the viability, T/C (second compound 0.01 µM, first compound 0.00316 µM)?
The viability, T/C was 86.6%.

And the viability, T/C (second compound 0.01 µM, first compound 0.01 µM)?
The viability, T/C was 86.3%.

What about the viability, T/C [1] of the same molecule?
Its viability, T/C is 83.4%.

What about the viability, T/C [2] of the same molecule?
The viability, T/C was 60.2%.

And the viability, T/C (second compound 0.0316 µM, first compound 0.000316 µM)?
The viability, T/C was 75.2%.

What about the viability, T/C (second compound 0.0316 µM, first compound 0.001 µM) of the same molecule?
The viability, T/C was 81.6%.

And the viability, T/C (second compound 0.0316 µM, first compound 0.00316 µM)?
The viability, T/C was 70.7%.

What about the viability, T/C (second compound 0.0316 µM, first compound 0.01 µM) of the same molecule?
Its viability, T/C is 63.4%.

And the viability, T/C [3]?
Its viability, T/C is 66.3%.

And the viability, T/C [4]?
Its viability, T/C is 58.4%.

What about the viability, T/C (second compound 0.1 µM, first compound 0.000316 µM) of the same molecule?
The viability, T/C was 60.7%.

And the viability, T/C (second compound 0.1 µM, first compound 0.001 µM)?
The viability, T/C was 59.5%.

What about the viability, T/C (second compound 0.1 µM, first compound 0.00316 µM) of the same molecule?
Its viability, T/C is 56.4%.

What about the viability, T/C (second compound 0.1 µM, first compound 0.01 µM) of the same molecule?
The viability, T/C was 53.4%.

What about the viability, T/C [5] of the same molecule?
The viability, T/C was 53.2%.

And the viability, T/C [6]?
Its viability, T/C is 50.5%.

And the viability, T/C (second compound 0.316 µM, first compound 0.000316 µM)?
Its viability, T/C is 55.8%.

What about the viability, T/C (second compound 0.316 µM, first compound 0.001 µM) of the same molecule?
Its viability, T/C is 56.3%.

And the viability, T/C (second compound 0.316 µM, first compound 0.00316 µM)?
Its viability, T/C is 52.1%.

What about the viability, T/C (second compound 0.316 µM, first compound 0.01 µM) of the same molecule?
The viability, T/C was 52%.

And the viability, T/C [7]?
The viability, T/C was 51.4%.

What about the viability, T/C [8] of the same molecule?
Its viability, T/C is 53.3%.

What about the viability, T/C (second compound 1 µM, first compound 0.000316 µM) of the same molecule?
Its viability, T/C is 49.5%.

What about the viability, T/C (second compound 1 µM, first compound 0.001 µM) of the same molecule?
Its viability, T/C is 45.1%.

And the viability, T/C (second compound 1 µM, first compound 0.00316 µM)?
Its viability, T/C is 43.2%.

What about the viability, T/C (second compound 1 µM, first compound 0.01 µM) of the same molecule?
Its viability, T/C is 46.4%.

And the viability, T/C [9]?
The viability, T/C was 45.4%.

And the viability, T/C [10]?
Its viability, T/C is 43%.
